This is an account of results in US20210308078A1, “NEW USE OF INHIBITORS OF MONOAMINE OXIDASE TYPE B” (ISTITUTO Di RICERCA PEDiATRiCA CITTA DELLA SPERANZA, priority 2018, published 2021).

Structures are written as SMILES.

The test system of one assay is MAOA, MAOB. Conditions: cited from earlier work.
A further assay concerns caspase-1. The experiment in a line: Caspase-1 activation assay (FLICA 660-YVAD-FMK, FACS) in human macrophages. Conditions: LPS/ATP and LPS/nigericin, 8 h; pargyline 100 μM, rasagiline 5 μM, NAC 5 mM. The format is cell-based.
Assay [1] concerns IL-1β. The experiment in a line: IL-1β release in human macrophages (ELISA). The format is cell-based. Conditions: LPS/ATP and LPS/nigericin, 8 h, pargyline 100 μM, rasagiline 5 μM, NAC 5 mM.
Method: FIG. 6. […] The levels of IL-1β in the supernatants were quantified by means of ELISA test. The values are the average of at least 3 independent experiments±SEM.
(§1) Human monocytes derived from buffy coats obtained from healthy donors were prepared as described in Cathcart, M. K., and Bhattacharjee, A. (2014). […] For macrophage differentiation, 5×10^6 monocytes, seeded in 24-well plates, were cultivated in RPMI 20% FBS in the presence of 10 ng/ml GM-CSF (Miltenyi Biotec) for 7 days. For inflammasome activation, 2×10^6 cells in 6-well plates were treated for 8 h with 100 ng/m1 of LPS Ultra-pure combined with ATP (1 mM) or nigericine (15 μM, added the last 30 min).
In assay [2] the test system is IL-1β. The experiment in a line: IL-1β release in murine macrophages (ELISA). Conditions: LPS 100 ng/ml + ATP 5 mM, 4 h, pargyline 100 μM, rasagiline 5 μM. The format is cell-based. From the text: FIG. 7. […] The levels of IL-1β in the supernatants were quantified by means of ELISA test.
Murine macrophages isolated from bone marrow were obtained from the tibia and femoral bone as described in Coll, R. C., Robertson, A. A., Chae, J. J., Higgins, S. C., Munoz-Planillo, R., Inserra, M. C., Vetter, I., Dungan, L. S., Monks, B. G., Stutz, A., et al. (2015). A small-molecule inhibitor of the NLRP3 inflammasome for the treatment of inflammatory diseases. Nature medicine 21, 248-255.
[…] ATP (5 mM, added the last 30 min).
The culture media sampled from stimulated and control human and murine macrophages were stored at −80° C. The levels of IL-1β0 were determined by means of commercially available ELISA kits (eBioscience) and were developed using 3,3′,5,5′-tetramethyl benzidine (TMB). The optical densities were measured at 450 nm by means of a microplate reader (Sunrise, Tecan; Switzerland).

The next assay concerns MAO. Conditions: human macrophages stimulated 8 h with LPS, LPS/ATP or LPS/nig; pargyline 100 μM, rasagiline 5 μM.
Assay [3] has as its system human macrophages. Conditions: stimulation with LPS/ATP and LPS/nigericine, 3 h; rasagiline 5 μM.
Method: The images were acquired by means of fluorescence microscopy. The data are expressed as fluorescence intensity and are normalised with respect to unstimulated cells (unst). The values are the average of at least 3 independent experiments±SEM.
as §1
ROS were determined by means of carboxymethyl-dichlorofluorescein (CM-DCFDA). […] After 3 h of stimulation the cells were loaded with CM-DCFDA (2.5 μM) for 30 min. All of the steps were performed at 37° C. with 5% CO2. The cells were washed with PBS and the images were acquired using a Leica DMI6000B microscope (Wetzlar, Germany). The fluorescence was measured at 6-8 random intervals per slide and an average value was recorded. The fluorescence emission was performed using excitation filters of emission 488±20 nm and 645±37 nm. The data were acquired and analysed by means of Metafluor software (Universal Imaging).
For assay [4], the system named is human macrophages. The note with it: 8 h of stimulation; rasagiline 5 μM pre-treatment.
Method: After 8 h of stimulation, the macrophages were loaded with tetramethylrhodamine methyl ester (TMRM, 50 nM) to determine the mitochondrial membrane potential. After acquisition of images by fluorescence microscopy, the uncoupling agent FCCP (4 μM) was added to collapse the mitochondrial potential. The difference of the fluorescence intensity obtained before and after FCCP is shown in the graph and reflects the mitochondrial membrane potential. The data are expressed as fluorescence intensity and are normalised with respect to unstimulated cells (unst). The values are the average of at least 3 independent experiments±SEM. […]
The mitochondrial membrane potential was measured on the basis of the accumulation of tetramethylrhodamine methyl ester (TMRM, Molecular Probes) as described in Sorato, E., Menazza, S., Zulian, A., Sabatelli, P., Gualandi, F., Merlini, L., Bonaldo, P., Canton, M., Bernardi, P., and Di Lisa, F. (2014). […] The medium was then substituted with a medium devoid of serum integrated with TMM 25 nM for 30 minutes, and the cell fluorescence images were acquired using a Leica microscope (Wetzlar, Germany) DMI6000B. The data were acquired and analysed by means of Metafluor software (Universal Imaging). An excitation of 540±20 nm and a 590 nm longpass emission filter were used to reveal the fluorescence. […]
The next assay has as its system NF-κB. The note with it: murine macrophages.
The subject of a further assay is mice treated with LPS. Conditions: rasagiline 0.5 mg/kg per os 12 h before LPS 10 mg/kg ip, 8 h.

From the text for NF-κB: The values are the average of at least 3 independent experiments±SEM.
Method for caspase-1: The cells were then marked with fluorescent antibodies anti-MHCII and analysed by FACS. The activity of the inflammasome was expressed as % of the cells that were positive for caspase-1 and for MHCII in relation to the total. The values are the average of at least 3 independent experiments±SEM.
as §1
The activation of caspase-1 in human macrophages was monitored by way of flow cytometry analysis. The cells, subjected to various treatments, were incubated at 37° C. for 3 h with FLICA 660-YVAD-FMK and washed according to the manufacturer's instructions (FLICA®660 Caspase-1 Assay Kit; ImmunoChemistry Technologies). […] The analysis was performed using CellQuest software (Becton Dickinson) in cells positive for caspase-1 and MHCII.
Method for mice treated with LPS: In parallel, a group of mice (ct) were treated with only the vehicle (PBS, ip). At the end, a sample of blood was taken and the plasma levels of IL-1β0 were quantified by means of Elisa test. […] The values are the average of at least 3 independent experiments±SEM.
In parallel, a group of mice (ct) were treated with only the vehicle (PBS, ip). At the end, peritoneal washing with 2 ml of PBS was performed, as well as a leukocyte count.
Adult mice were treated with a single injection of LPS (10 mg/kg ip) for 8 h or of vehicle (PBS, ip). […] At the end, the animals were sacrificed and samples were taken of blood and the peritoneal exudate.
Male mice (strain C57BL/6J) of age 8-10 weeks and weight approximately 30 gr. were subjected to an intraperitoneal injection with LPS (10 mg/kg, L4130, Sigma-Aldrich) or vehicle (saline solution, called PBS). […] The treated animals were sacrificed 8 hours after the injection (considered as time 0), by means of cervical dislocation. Immediately after the sacrifice an intraperitoneal washing was performed with 2 ml of PBS and any exudate present was collected to determine the leukocyte count. In addition, samples of blood were taken and frozen after obtaining the plasma for analysis of IL-1β by means of ELISA test.

Regarding `NNCCc1ccccc1` [phenelzine], in the assay on MAOA, MAOB, the “selectivity of inhibition for MAOA / MAOB isoforms” value is “lack selectivity”.
On to `CC(=O)N[C@@H](CS)C(=O)O` [N-acetylcysteine], for which the “activity of the inflammasome (% cells positive for caspase-1 and MHCII)” value in the assay on caspase-1 was “effect is similar”. In addition, the “release of IL-1β in supernatants” value with IL-1β [1] is “effect is similar”.
As for `N[C@@H]1C[C@H]1c1ccccc1` (racemic) [tranylcypromine], the “selectivity of inhibition for MAOA / MAOB isoforms” value in the assay on MAOA, MAOB is given as “lack selectivity”.
For `C#CCN(C)Cc1ccccc1` [pargyline], the “activity of the inflammasome (% cells positive for caspase-1 and MHCII)” value in the assay with caspase-1 is recorded as “significantly inhibit the activity of the inflammasome”. The “release of IL-1β in supernatants” value with IL-1β [1] and in the assay with IL-1β [2] was “significantly inhibit the release of IL-1β” each time. Moreover, in the assay with MAO, the “intracellular concentration of dopamine” value is on record as “increases subsequently”. In addition, the “selectivity of inhibition for MAOA / MAOB isoforms” value in the assay with MAOA, MAOB is “able to inhibit both the isoforms”.
For the compound `C#CCN[C@@H]1CCc2ccccc21` [rasagiline], in the assay with caspase-1, the “activity of the inflammasome (% cells positive for caspase-1 and MHCII)” value was “significantly inhibit the activity of the inflammasome”. In the assay with IL-1β [1], the “release of IL-1β in supernatants” value is reported as “significantly inhibit the release of IL-1β”. In addition, in the assay on IL-1β [2], the “release of IL-1β in supernatants” value was “significantly inhibit the release of IL-1β”. In addition, the “intracellular concentration of dopamine” value in the assay with MAO was “increases subsequently”. The “production of ROS” value in the assay with human macrophages [3] is reported as “reduces the production of ROS”. Also, the “mitochondrial depolarisation (mitochondrial membrane potential, TMRM)” value with human macrophages [4] is listed as “significantly reduce the mitochondrial depolarisation”. In addition, in the assay with NF-κB, the “activation of NF-κB” value is recorded as “reduce the activation of NF-κB” and the “protein levels of pro-IL-1β” value is reported as “reduce”. In the assay with mice treated with LPS, the “concentration of leucocytes in the peritoneal liquid” value is given as “clear reduction of the concentration of leucocytes” and the “plasma levels of IL-1β” value is on record as “drastically reduces the increase of plasma levels of IL-1β”. Moreover, the “selectivity of inhibition for MAOA / MAOB isoforms” value in the assay on MAOA, MAOB is “MAOB are selectively inhibited”.
